# According to US7718768B2, “Biologically active peptide [sequence]” (CMS Peptides Patent Holding Company Limited, priority 2001, dated 2010):
# Where “and” joins values, the source holds several entries; their conditions need not be identical. Equal values may be shown once. Marks after values point to notes of the source that are not given here. No end group written: not given here.
# B1: IFN-γ: recombinant mouse interferon-γ, Beijing Biotech Inc.; positive control immunostimulant (protein, UniProt P01580 23-155, looked up)
# Interferon gamma: HGTVIESLESLNNYFNSSGIDVEEKSLFLDIWRNWQKDGDMKILQSQIISFYLRLFEVLKDNQAISNNISVIESHLITTFFSNSKAKKDAFMSIAKFEVNNPQVQRQAFNELIRVVHQLLPESSLRKRKRSRC
# Experiments:
# [1] = tested on: NK cell; assay: NK cell activity in mice with ascitic fluid type liver cancer H22; type: in vivo, BALB/c mice
# Protocol: Healthy BALB/c mice were randomized into peptide group, rmIFN-γ group, rhIL-2 group, and saline group, 15 mice per group, and prepared into H22 carrying mice model as described in section Method 3. After implantation of the cancer cells, the test substances were administered for 15 days, the mice were killed by cervical dislocation. The spleen was isolated aseptically and manually dispersed in cold D-Hank's solution using an injection needle. The dispersed cell suspension was further sieved through a 100-gauge 150 μm diameter stainless steel sieve. After centrifugation at 200 g for 10 minutes, the supernatant was discarded. The cell pellet was re-suspended in 10 volume of Tris-NH4Cl buffer and then kept standing still for 10 minutes at room temperature. The suspended cells were collected by centrifugation at 150 g for 10 minutes. The cells were washed 2-4 times with cold D-Hank's solution by re-suspending and collecting by centrifugation with condition as described above. The washed cells were then diluted to the desired cell densities by RPMI-1640 culture medium, containing 10% fetal bovine serum.
# Mice spleen cells were prepared to 4×10^6/ml as described in section 4.1 above. Target cells YAC-1 were brought to log phase and adjusted to 1×10^5/ml. Using a 96 wells cell culture plate, 100 μl mouse spleen cells and 100 μl culture medium were added to the control well containing only the spleen cells; 100 μl target cells and 100 μl culture medium were added to the control well containing only target cells; 100 μl mouse spleen cells and 100 μl target cells were added to the NK activity assay well. Three parallel sets of the above were prepared per mouse. After that, the 96 wells cell culture plates were incubated for 4 hrs at 37° C., 5% CO2.
# Samples were centrifuged at 150 g for 10 minutes to collect the cells. The supernatant was discarded and 50 μl/well MTT of 1 mg/ml was added. The reaction-mixture was then shaken for 2 minutes, and incubated at 37° C., 5% CO2 for 4 hours. The supernatant was discarded after centrifugation at 150 g for 10 minutes. 120 μl 40 mM HCl-2-propanol was added and shaken for 3 minutes. An ELISA reader was used to obtain OD570nm of each well referenced at 630 nm.
# The NK cell activity index of each mouse was obtained by first deriving the average OD of the three parallel wells of each combination, then applying this average OD to the following formula: NK cell activity index=[1−(average OD of spleen and target cell well−average OD of spleen cell only well)÷(average OD of target cell only well)]×100% 5. The Effect of Peptides on the Survival of DBA/2 Mice with Transplanted L1210 Leukemia
# [2] = tested on: anti-SRBC antibody; assay: humoral immunity (SRBC hemolysis index) of mice bearing transplanted B16 melanoma; type: in vivo, C57BL/6 mice; parameters: key: index = (OD540 of test sample ÷ reference OD540) × 500
# Protocol: (§1) Intraperitoneal injection, once per day. […] Treatment of all groups with testing substance lasted for 30 days or until the animal died unless otherwise specified.
# Stock B16 mouse melanoma cells were incubated in DMEM/F12 medium supplemented with 10% fetal bovine serum, 37° C./5% CO2 for 72 hrs, then washed 3-4 times with Hank's solution. The cell concentration was adjusted to 1×10^5 per ml with Hank's solution and 0.1 ml of the cell suspension was injected via the tail vein into the testing mice to generate the B16 melanoma bearing animal model. Treatment with test substance started as described in section Method 1.
# Sheep red blood cells (SRBC) were prepared by collecting blood from the cervical vein and put into a sterile flask with glass beads. The flask was shaken for 3 minutes and the blood then mixed with Alsever solution (glucose 2.05 g, NaCl 0.4 g, […] 0.8 g, adjust to 100 ml with distilled water) and stored at 4° C. Immediately before use, samples were centrifuged at 130 g, 5 minutes to collect the SRBC. The cells were washed two times by re-suspension and centrifugation in normal saline. Then the cell pellet was collected by centrifugation at 180 g for 10 minutes and re-suspended in saline to make the final working SRBC suspension, 2% (v/v).
# Complement was prepared by adding 10 volumes of fresh Cavy serum into one volume centrifuge packed SRBC, and then gently shaken for 30 minutes at 4° C. The SRBC was removed by centrifugation at 200 g for 10 minutes. 10 volumes of normal saline were added to obtain the working complement solution.
# On the testing animals, on the 27th date of test substance treatment, 0.2 ml of the working SRBC cell suspension was injected into each animal to raise antibody. On the day after the last test substance administration, blood was collected from the eye canthus and left at room temperature for one hour for serum exudation. After centrifugation at 200 g for 10 minutes, the collected serum was diluted by 500 times with normal saline.
# To 1 ml diluted mouse serum of each mouse, 0.5 ml SRBC suspension was added. Ice cold. Then 1 ml working complement solution was added and incubated at 37° C. water bath for 10 minutes. Reactions were terminated by ice cold. Samples were then centrifuged at 200 g for 10 minutes to obtain the supernatant.
# To 1 ml of this supernatant, 3 ml Drabkin solution was added and left at room temperature for 10 minutes. OD540nm was obtained.
# Reference OD540nm was obtained by mixing 0.25 ml SRBC suspension with Drabkin solution to 4 ml and placed at room temperature for 10 minutes before OD540nm was taken. Hemolysis index=(OD540nm of test sample÷reference OD540 nm)×500 6.2 After the Humoral Immunity Study, the Mice were Killed by Cervical Vertebra Dislocation. Postmortum Examination of the Animals was Performed. The Pathological Changes were Recorded, and the Numbers of Melanoma Lung Metastasis Foci were Counted. Results 1. The Effect of Peptide on the Cellular Phagocytosis in BALB/c Mice with Transplanted S180 Sarcoma (Method 2.1)
# [3] = tested on: T lymphocyte; parameters: species or system BALB/c mice; details: mouse, in vivo, ip
# [4] = tested on: S180 sarcoma cells; assay: growth of transplanted S180 sarcoma; type: in vivo, BALB/c mice; details: for Tumor inhibition index: versus saline group
# Protocol: as §1
# Stock S180 sarcoma cells were incubated in DMEM/F12 medium supplemented with 10% fetal bovine serum, 37° C., 5% CO2 for 72 hrs, then washed 3-4 times with Hank's solution at room temperature. Adjust the cell concentration to 1-2×10^9 per liter with Hank's solution. […] The mice were killed by cervical vertebra dislocation. Vigorously growing and non-disrupted tumor masses were harvested and washed clean with sterile saline. The tissue was dispersed in saline to a homogenous cell suspension, in a ratio of 1 g tissue to 4 ml saline. The sarcoma bearing mice model was prepared with an injection of 0.2 ml cell suspension through the armpit. Administration of test substance treatment started as described in section Method 1.
# After the phagocytosis index study, the mice were killed by cervical vertebra dislocation. The liver, spleen, and cancer tissue were dissected, blotted dry, and weighed.
# 2.2 The Tumor Growth Inhibition Index was Calculated According to the Following Formula: Tumor growth inhibition index=(mean tumor weight of control group−mean tumor weight of treatment group)÷mean tumor weight of control group 3.
# [5] = 3 × 10^5 IU/kg i.p. once per day
Molecule,Hemolysis index ([2]; 0.5 μg/kg i.p. once per day),Hemolysis index ([2]; 5 μg/kg i.p. once per day),Hemolysis index ([2]; 50 μg/kg i.p. once per day),Hemolysis index ([2]; 500 μg/kg i.p. once per day),activity of T lymphocyte in secreting IFN [3],further results
Phe Glu Glu Glu (FEEE; listed as Sus scrofa) [CMS032],–,–,–,–,–,NK activity index ([1]; 5 μg/kg i.p. once per day): 52.6 ± 12.5*^^$& %; NK activity index ([1]; 50 μg/kg i.p. once per day): 41.0 ± 18.7*^^$& %
KAVGHLDDLPGAL [CMS008],42.7 ± 18.4*^$,38.9 ± 12.0*^$,37.1 ± 16.7*^$,50.1 ± 17.8*^$,–,–
FNFVPP [CMS003],61.6 ± 26.9*^$,37.2 ± 15.9*^$,38.7 ± 13.5*^$,35.9 ± 13.0*^$,106 ± 16 IU,NK activity index ([1]; 500 μg/kg i.p. once per day): 37.9 ± 14.5*^^$ %
PTTKTYFPHF [CMS001],51.0 ± 16.2*^$,41.3 ± 17.7*^$,45.0 ± 31.9*^$,36.0 ± 10.2*^$,–,–
Phe Val Asn Asp (FVND; listed as Sus scrofa) [CMS035],–,38.9 ± 21.2*^$,44.7 ± 22.7*^$,40.5 ± 25.8,–,Tumor weight ([4]; 5 μg/kg i.p. once per day): 0.71 ± 0.37 g; Tumor inhibition index ([4]; 5 μg/kg i.p. once per day): 44.6%
IGMESAGIHETTY [CMS016],–,–,–,43.3 ± 29.9,162 ± 19*^@^ IU,–
Tyr Ser Leu (YSL; listed as Sus scrofa) [CMS024],43.0 ± 10.7*^$,42.2 ± 11.8*^$,27.8 ± 9.1,30.1 ± 10.0,–,NK activity index ([1]; 0.5 μg/kg i.p. once per day): 39.3 ± 18.7*^$ %; NK activity index ([1]; 5 μg/kg i.p. once per day): 34.9 ± 12.1*^^$ %; NK activity index ([1]; 50 μg/kg i.p. once per day): 43.6 ± 13.9*^^$& %
LRVAPEEHPTL [CMS009],–,–,–,–,121 ± 15*^ IU,–
Pro Glu Asn Phe (PENF; listed as Sus scrofa) [CMS034],50.8 ± 18.4*^$,43.0 ± 11.7*^$,30.2 ± 10.9,–,–,Tumor weight ([4]; 0.5 μg/kg i.p. once per day): 0.83 ± 0.48 g; Tumor inhibition index ([4]; 0.5 μg/kg i.p. once per day): 35.9%; NK activity index ([1]; 50 μg/kg i.p. once per day): 57.3 ± 17.9*^^$& %
VGMGQKDSY [CMS019],42.0 ± 12.0*^$,35.4 ± 15.1*^$,28.3 ± 7.6,–,–,–
VAPEEHPTLLTEAPLNPK [CMS010],34.9 ± 10.5*^$,51.0 ± 14.6*^$,39.6 ± 7.7*^$,50.1 ± 16.7*^$,167 ± 13*^@^ IU and 142 ± 18*^@^ IU,Tumor weight ([4]; 500 μg/kg i.p. once per day): 0.67 ± 0.35 g; Tumor inhibition index ([4]; 500 μg/kg i.p. once per day): 48.4%
RVAPEEHPTL [CMS011],32.0 ± 14.7,–,–,34.4 ± 19.4,89 ± 18 IU,–
B1,–,–,–,–,139 ± 16 IU and 125 ± 18 IU and 124 ± 16 IU,"Tumor weight [4, 5]: 0.96 ± 0.45 g; Tumor inhibition index [4, 5]: 25.3%; NK activity index [1, 5]: 20.9 ± 3.3%; Hemolysis index [2, 5]: 60.5 ± 17.4"
